The text below walks through data of patent US6355663B1, “Substituted isoxazolylthiophene compounds” (Taisho Pharmaceutical Co., Ltd., priority 1998, dated 2002).

Data set [1] relates to osteoblasts derived from the parietal bone of rat fetus. Briefly: Enhancing activity for the nodule induction in osteoblasts. In kind it is cell-based. The following applies: rat fetal parietal bone osteoblasts. Here is the method: The compounds of the invention were determined for an enhancing activity for the nodule induction in osteoblasts derived from the parietal bone of rat fetus. Results were 342% at 1.0 μg/ml for Example 1, 501% at 2.5 μg/ml for Example 3, 576% at 2.5 μg/ml for Example 7 and 550% at 2.5 μg/ml for Example 9, respectively.

For data set [2] the test system is unchanged. Briefly: Enhancing activity for the induction of alkaline phosphatase production in osteoblasts. The class given is cell-based. The following applies: test compound 2.5 μg/ml; compared with activity without the test compound; rat fetal parietal bone osteoblasts. Here is the method:
The compounds of the present invention were determined for an enhancing activity for the induction of alkaline phosphatase production in osteoblasts derived from the parietal bone of rat fetus. Enhancing activities for the induction of alkaline phosphatase production at a concentration of the test compound of 2.5 μg/ml were 195% for Example 1, 155% for Example 3, 187% for Example 7 and 134% for Example 9, respectively, when compared with those activities without the test compounds.

For the molecule `CSc1sc(C(N)=O)c(C)c1-c1oncc1C` [Example 1, 3,4′-Dimethyl-4-(isoxazol-5-yl)-5-(methylthio)thiophene-2-carboxamide], in data set [1] (at 1.0 μg/ml), the “Enhancing activity for the nodule induction” value is 342%. The “Enhancing activity for the induction of alkaline phosphatase production” value (“Enhancing activity for the induction” below) in data set [2] stood at 195%.
The melting point is the temperature of the solid-liquid transition. In the case of `CCc1c(C(N)=O)sc(SC)c1-c1oncc1C` [Example 3, 3-Ethyl-4-(4-methylisoxazol-5-yl)-5-(methylthio)thiophene-2-carboxamide], the melting point was 93.5 to 94.5 °C. Also, the “Enhancing activity for the nodule induction” value in data set [1] (at 2.5 μg/ml) is reported as 501%. Also, the “Enhancing activity for the induction” value in data set [2] was 155%.
Turning to `CCc1cnoc1-c1c(SC)sc(C(N)=O)c1C` [Example 7, 4-(4-Etkylisoxazol-5-yl)-3-methyl-5-(methylthio)-thiophene-2-carboxamide], the “Enhancing activity for the nodule induction” value in data set [1] (at 2.5 μg/ml) is given as 576%. Further, the “Enhancing activity for the induction” value in data set [2] worked out at 187%.
The matching figures for `CSc1sc(C(N)=O)c(C)c1-c1oncc1C(C)C` [Example 9]: 550% and 134%.
